Each structure is given as a SMILES string.

This note sets out measurements from patent US9839632B2, “Methods and compositions using 4-amino-2-(2,6-dioxo-piperidine-3-yl)-isoindoline-1,3-dione for treatment and management of central nervous system cancers” (CELGENE CORPORATION, priority 2013, dated 2017).

One data set relates to Raji B lymphoma cells. Briefly: Orthotopic murine CNS lymphoma model, Raji (bioluminescence tumor growth, survival). The class given is in vivo, athymic mice. The conditions noted are these: for median survival: Raji model; for in vivo tumor growth (luminescence signal) vs control: P<0.05, n=8. How it is done:
Animal and housing: Female athymic mice (8-10 weeks old and weighing 20-25 g at the beginning of the study) were purchased from Harlan laboratories. They were housed in a temperature-controlled sterilized room (23±2° C.) with a 12-h light/dark cycle and free access to food and water throughout the study. Animal use was approved by Mayo Foundation Institutional Animal Use and Care Committee and was in accordance with NIH Guide for the Care and Use of Laboratory Animals.
Orthotopic murine CNS lymphoma models: Two murine CNS lymphoma models were created by intracerebral injection of 2.5×10^4 luciferase-transfected Raji or 1×10^5 luciferase-transfected OCI-LY10 B lymphoma cells in athymic mice under anesthesia using a stereotactic platform. Eight-week-old athymic mice underwent minimum 7-day acclimation/quarantine prior to surgery. Surgery was performed in a laminar flow hood under sterile conditions. Tylenol 300 mg/kg PO was given for analgesia 24 hours before the surgery continuing 48 hours postoperatively. Anesthesia was achieved by inhalation of 1-2% isoflurane. After the mouse became well anesthetized, it was placed in the Kopf stereotactic instrument. A small amount of BNP antibiotic cream (a mixture of Bacitracin, Neomycin and Polymyxin) was smeared on its eyes to prevent infection and corneal damage during surgery. A strip of soft fabric was placed over the mouse's body and tail to prevent excessive heat loss during surgery. The scalp area was cleaned with a 2% solution of Betadine and dried with cotton tipped applicator. A midline sagittal incision was made in the scalp. A small burr hole was drilled in the left skull with a surgical drill (Kopf) or a Dremel drill according to the coordinates (AP: 0.5 mm, LM: 2.5 mm) as determined by reference to the mouse brain atlas by Franklin and Paxinos. Paxinos, 2001. The dura mater was surgically exposed, and a 10 μl-Hamilton syringe with a 26S-gauge beveled needle was lowered into the left cerebral hemisphere up to the depth of 3 mm and 5 μl of tumor cells was slowly infused (0.5 μl/min). The needle was left in place for 5 minutes to prevent reflux and then was slowly removed. The skin was closed with wound clips. The mice recovered from anesthesia and surgery in a warm environment and were not returned to their cages until motor activity returned. Cages were placed on top of a heating pad to minimize the loss of body heat during the recovery. The mice were monitored postoperatively at least twice a day for 5 days or until recovery was complete.
Bioluminescence imaging of mouse: After intracerebral injection of lymphoma cells, all the mice were subjected to bioluminesence imaging (“BLI”) twice a week starting at day-4 post-intracerebral injection to monitor the real-time in vivo tumor growth. BLI was conducted using a Xenogen Lumina optical imaging system (Caliper Life Sciences, Hopkinton, Mass.). Mice were anesthetized with isofluorane before intraperitoneal injections of luciferin at a dose of 150 mg/kg, providing a saturating substrate concentration for luciferase enzyme. Peak luminescent signals were recorded 10 minutes after luciferin injection. Regions of interest encompassing the intracranial area of signal were defined using Living Image software (Xenogen), and the total photons/s/steradian/cm^2 was recorded.
In vivo preclinical evaluation of 4-amino-2-(2,6-dioxo-piperidine-3-yl)-isoindoline-1,3-dione in murine CNS lymphoma models: Mice were imaged 4 days after intracerebral injection and were distributed among different treatment groups with equivalent average BLI signal. Real time tumor growth was monitored by BLI. Tumor growth and survival data were analyzed for statistical difference between the groups. Mice were assigned to four experimental groups and one vehicle control group in Raji model. Mice in experimental groups received 4-amino-2-(2,6-dioxo-piperidine-3-yl)-isoindoline-1,3-dione 0.3 mg/kg, 3 mg/kg, 10 mg/kg, or 30 mg/kg by oral gavage daily for 28 days.

The subject of data set [1] is U937 cells cocultured with Raji lymphoma cells. Briefly: Polarization of U937 cocultured with Raji lymphoma cells with or without YTS NK cells. The class given is cell-based, human. The following applies: for M2 polarization of U937 cells (FXIIIA, pSTAT6): coculture with Raji lymphoma cells, without NK cells; for polarization status of U937 cells (iNOS, pSTAT1): triple culture with Raji lymphoma cells and YTS NK cells, 10 ug/ml 48 hours. How it is done:
Raji lymphoma cells (ATCC), U937 human monocyte cells (ATCC) and YTS NK cells (a gift from Dr. Pamela A. Becker) were cultured at 37° C. in a humidified incubator under 5% CO2 and 95% air in RPMI-1640 supplemented with 20% FCS and 1% penicillin-streptomycin, and 1% nonessential amino acids.
OCI-LY10 lymphoma cells (a gift from Arthur L. Shaffer III) were cultured at 37° C. in a humidified incubator under 5% CO2 and 95% air in IMDM supplemented with 20% FCS and 1% penicillin-streptomycin. Co-culture of lymphoma cells and U937 monocytes: Raji and U937 monocytes were cultured at 37° C. in a humidified incubator under 5% CO2 and 95% air in RPMI-1640 supplemented with 20% FCS and 1% penicillin-streptomycin, and 1% nonessential amino acids. OCI-LY10 and U937 monocytes were cultured at 37° C. in a humidified incubator under 5% CO2 and 95% air in IMDM supplemented with 20% FCS and 1% penicillin-streptomycin. Triple culture of lymphoma cells, U937 monocytes and YTS cells: Raji, U937 and YTS cells were cultured at 37° C. in a humidified incubator under 5% CO2 and 95% air in RPMI-1640 supplemented with 20% FCS and 1% penicillin-streptomycin, and 1% nonessential amino acids. OCI-LY10, U937 and YTS were cultured at 37° C. in a humidified incubator under 5% CO2 and 95% air in IMDM supplemented with 20% FCS and 1% penicillin-streptomycin.
Treatments: In experiments in which IL-4 was used to induce M2 polarization of macrophages, cells were treated with IL-4 (20 ng/ml) for 48 hours followed by treatment with 4-amino-2-(2,6-dioxo-piperidine-3-yl)-isoindoline-1,3-dione (10 ug/ml) or DMSO control for 48 hours. In triple cell culture experiments with lymphoma cells, macrophages, and NK cells, the treatment was with either DMSO or 4-amino-2-(2,6-dioxo-piperidine-3-yl)-isoindoline-1,3-dione (10 ug/ml) for 48 hours.
Immunofluorescence for analysis of macrophage polarization in cell culture experiments: Live cells were fixed in 10% formalin for 30 minutes at room temperature followed by permeabilization with PBS-0.2% Triton X-100 for 2 min. After blocking with PBS-5% goat serum-0.02% Triton X-100 for 30 minutes at 37° C., the cells were incubated overnight at 4° C. with rat monoclonal F4/80 antibody (for primary microglia cells, 1:200 Abcam), rat monoclonal CD11b (for U937, 1:200 Biolegend), rabbit polyclonal Ym1 antibody (for primary microglia cells and primary peritoneal macrophages, 1:200, Stemcell Technologies, Vancouver, Canada), rabbit polyclonal FXIII A antibody (for U937, 1:200, Abcam), mouse monoclonal p-STAT1 antibody (1:200, Abcam), rabbit polyclonal p-STAT6 antibody (1:200, Abcam) or rabbit iNOS antibody (1:200, Calbiochem). […]

Where [2] appears, read: listed as 4-amino-2-(2,6-dioxo-piperidine-3-yl)-isoindoline-1,3-dione.

Regarding `Nc1cccc2c1C(=O)N(C1CCC(=O)NC1=O)C2=O` (stereo not drawn) [Pomalidomide, 4-amino-2-(2,6-dioxo-piperidine-3-yl)-isoindoline-1,3-dione], the “body weight vs control group” value with Raji B lymphoma cells (3, 10 and 30 mg/kg treatment groups, murine CNS lymphoma model not specified) is listed as “able to maintain their body weight better than those in control group”. Also, the median survival in the data set with Raji B lymphoma cells (0.3 mg/kg oral gavage daily for 28 days) is on record as 24 days; in the data set on Raji B lymphoma cells (3 mg/kg oral gavage daily for 28 days), 28 days; in the data set with Raji B lymphoma cells (10 mg/kg oral gavage daily for 28 days), 27 days; in the data set on Raji B lymphoma cells (30 mg/kg oral gavage daily for 28 days), 31 days. Moreover, the “in vivo tumor growth (luminescence signal) vs control” value in the data set with Raji B lymphoma cells (Raji model, 3, 10 and 30 mg/kg groups) is given as “significantly slower”; in the data set on Raji B lymphoma cells (Raji model, 3, 10 and 30 mg/kg groups, listed as 4-amino-2-(2,6-dioxo-piperidine-3-yl)-isoindoline-1,3-dione) it was “reduction of tumor growth”. Besides, the “survival, Kaplan-Meier analysis vs control” value in the data set with Raji B lymphoma cells (Raji model, 3, 10 and 30 mg/kg groups, p<0.05, n=8) is given as “prolongation of survival”. For the same compound, the “M2 polarization of U937 cells (FXIIIA, pSTAT6)” value in data set [1] was “reversed”; in data set [1] (setting [2]) it was “prevented the M2 polarization of macrophages but did not induce them into M1 polarization”. The figures for the “polarization status of U937 cells (iNOS, pSTAT1)” value in data set [1] and in data set [1] (setting [2]) were “from M2 to M1” and “became M1-polarized”, respectively.
